What was measured:
MV4-11 = experiment: Antiproliferative activity against human MV4-11 cells assessed as cell viability by WST-1 assay; type: functional, cell-based
MDA-MB-468 = experiment: Antiproliferative activity against human MDA-MB-468 cells assessed as cell viability by WST-1 assay; type: functional, cell-based
MDA-MB-231 [1] = experiment: Antiproliferative activity against human MDA-MB-231 cells assessed as cell viability by WST-1 assay; type: functional, cell-based
MG-63 = experiment: Antiproliferative activity against human MG-63 cells assessed as cell viability by WST-1 assay; type: functional, cell-based
NCI-H23 = experiment: Antiproliferative activity against human NCI-H23 cells assessed as cell viability by WST-1 assay; type: functional, cell-based
A549 [2] = experiment: Antiproliferative activity against human A549 cells assessed as cell viability by WST-1 assay; type: functional, cell-based
[3] = Cytotoxicity against mouse MS-1 cells assessed as cell growth inhibition by anti-angiogenisis screening assay; type: toxicity, cell-based
RPMI-7951 = experiment: Growth inhibition of human RPMI-7951 cells measured after 72 hrs by microplate reader analysis; type: functional, cell-based; conditions: RPMI-7951, time 72 hrs
[4] = Cytotoxicity against mouse SVR cells assessed as cell growth inhibition by anti-angiogenisis screening assay; type: toxicity, cell-based
[5] = Cytotoxicity against HUVEC cells assessed as cell growth inhibition by anti-angiogenisis screening assay; type: toxicity, cell-based; conditions: human
MDA-MB-231 [6] = experiment: Growth inhibition of human MDA-MB-231 cells measured after 72 hrs by microplate reader analysis; type: functional
HCT-116 [7] = experiment: Antiproliferative activity against human HCT116 cells assessed as cell growth inhibition measured after 96 hrs; type: functional, cell-based; conditions: HCT-116, 96 h
THP-1 = experiment: Antiproliferative activity against human THP-1 cells assessed as cell growth inhibition measured after 24 hrs by MTT assay; type: functional, cell-based; conditions: THP-1, 24 h
K562 = experiment: Antiproliferative activity against human K562 cells assessed as cell growth inhibition measured after 24 hrs by MTT assay; type: functional, cell-based; conditions: K562, 24 h
HepG2 = experiment: Antiproliferative activity against human HepG2 cells assessed as cell growth inhibition measured after 24 hrs by MTT assay; type: functional, cell-based; conditions: HepG2, 24 h
HeLa [8] = experiment: Antiproliferative activity against human HeLa cells assessed as cell growth inhibition measured after 24 hrs by MTT assay; type: functional, cell-based
8505C = experiment: Antiproliferative activity against human 8505C cells assessed as cell growth inhibition measured after 72 hrs; type: functional, cell-based
DLD-1 = experiment: Antiproliferative activity against human DLD-1 cells assessed as cell growth inhibition measured after 72 hrs; type: functional, cell-based; conditions: DLD-1, 72 h
ACHN = experiment: Antiproliferative activity against human ACHN cells assessed as cell growth inhibition measured after 72 hrs; type: functional, cell-based
A-431 = experiment: Antiproliferative activity against human A-431 cells assessed as cell growth inhibition measured after 72 hrs; type: functional, cell-based; conditions: A-431, 72 h
Huh-7 = experiment: Antiproliferative activity against human Huh-7 cells assessed as cell growth inhibition measured after 72 hrs; type: functional, cell-based; conditions: Huh-7, 72 h
A549 [9] = experiment: Antiproliferative activity against human A549 cells assessed as cell growth inhibition measured after 72 hrs; type: functional, cell-based; conditions: A549, 72 h
[10] = Antiproliferative activity against human PK-1 cells assessed as cell growth inhibition measured after 72 hrs; type: functional, cell-based; conditions: PK-1, 72 h
MCF7 = experiment: Antiproliferative activity against human MCF7 cells assessed as cell growth inhibition measured after 72 hrs; type: functional, cell-based; conditions: MCF7, 72 h
G-361 = experiment: Antiproliferative activity against human G-361 cells assessed as cell growth inhibition measured after 72 hrs; type: functional, cell-based; conditions: G-361, 72 h
HuCCT-1 = experiment: Antiproliferative activity against human HuCCT-1 cells assessed as cell growth inhibition measured after 72 hrs; type: functional, cell-based; conditions: HuCCT-1, 72 h
HCT-116 [11] = experiment: Antiproliferative activity against human HCT-116 cells assessed as cell growth inhibition measured after 72 hrs; type: functional, cell-based; conditions: HCT-116, 72 h
[12] = Antiproliferative activity against human SH-10-TC cells assessed as cell growth inhibition measured after 72 hrs; type: functional, cell-based
PC-3 = experiment: Antiproliferative activity against human PC-3 cells assessed as cell growth inhibition measured after 72 hrs; type: functional, cell-based; conditions: PC-3, 72 h
[13] = Antiproliferative activity against human OVK18 cells assessed as cell growth inhibition measured after 72 hrs; type: functional, cell-based; conditions: OVK18, 72 h
GCIY = experiment: Antiproliferative activity against human GCIY cells assessed as cell growth inhibition measured after 72 hrs; type: functional, cell-based
HeLa [14] = experiment: Antiproliferative activity against human HeLa cells assessed as cell growth inhibition measured after 72 hrs by MTT assay; type: functional, cell-based; conditions: Homo sapiens, HeLa, 72 h
Ca-Ski = experiment: Antiproliferative activity against human Ca-Ski cells assessed as cell growth inhibition measured after 72 hrs by MTT assay; type: functional, cell-based
HUVEC = experiment: Anti-angiogenesis activity in HUVEC cells; type: functional, cell-based; conditions: Homo sapiens

**Q.** Which IC50 (MV4-11) does the source give for `COc1cc(/C=C2\CN(C)C/C(=C\c3cc(OC)c(OC)c(OC)c3)C2=O)cc(OC)c1OC` here?
**A.** 390 nM

**Q.** And the IC50 (MDA-MB-468)?
**A.** 390 nM

**Q.** And the IC50 (MDA-MB-231 [1])?
**A.** 390 nM

**Q.** And the IC50 (MG-63)?
**A.** 390 nM

**Q.** What about the IC50 (NCI-H23) of the same compound?
**A.** 390 nM

**Q.** And the IC50 (A549 [2])?
**A.** 390 nM

**Q.** Which results are given for `O=C1/C(=C/c2ccccc2Cl)CNC/C1=C\c1ccccc1Cl`?
**A.** IC50 (MV4-11): 390 nM; IC50 (MDA-MB-468): 390 nM; IC50 (MDA-MB-231 [1]): 390 nM; IC50 (MG-63): 390 nM; IC50 (NCI-H23): 390 nM; IC50 (A549 [2]): 390 nM

**Q.** For `O=C1/C(=C/c2ccccc2Br)CNC/C1=C\c1ccccc1Br`, which IC50 (MV4-11) is on record?
**A.** 390 nM

**Q.** What about the IC50 (MDA-MB-468) of the same compound?
**A.** 390 nM

**Q.** And the IC50 (MDA-MB-231 [1])?
**A.** 390 nM

**Q.** And the IC50 (MG-63)?
**A.** 390 nM

**Q.** What about the IC50 (NCI-H23) of the same compound?
**A.** 390 nM

**Q.** What about the IC50 (A549 [2]) of the same compound?
**A.** 390 nM

**Q.** What does the source list for `O=C(/C=C/c1ccc(O)cc1)/C=C/c1ccc(O)cc1`?
**A.** GI50 [3]: 3.2 µM; GI50 (RPMI-7951): 2300 nM; GI50 [4]: 3.2 µM; GI50 [5]: 3.2 µM; GI50 (MDA-MB-231 [6]): 1000 nM

**Q.** Which IC50 (MV4-11) does the source give for `COc1cccc(/C=C2\CNC/C(=C\c3cccc(OC)c3OC)C2=O)c1OC` here?
**A.** 390 nM

**Q.** And the IC50 (MDA-MB-468)?
**A.** 390 nM

**Q.** What about the IC50 (MDA-MB-231 [1]) of the same compound?
**A.** 390 nM

**Q.** And the IC50 (MG-63)?
**A.** 390 nM

**Q.** And the IC50 (NCI-H23)?
**A.** 390 nM

**Q.** What about the IC50 (A549 [2]) of the same compound?
**A.** 390 nM

**Q.** Which GI50 [3] does the source give for `O=C(/C=C/c1cccc(O)c1)/C=C/c1cccc(O)c1` here?
**A.** 3.2 µM

**Q.** And the GI50 (RPMI-7951)?
**A.** 2300 nM

**Q.** And the GI50 [4]?
**A.** 3.2 µM

**Q.** And the GI50 [5]?
**A.** 3.2 µM

**Q.** What about the GI50 (MDA-MB-231 [6]) of the same compound?
**A.** 1000 nM

**Q.** For `COc1cc(/C=C2\CN(C(=O)C(C)C)C/C(=C\c3cc(OC)c(OC)c(OC)c3)C2=O)cc(OC)c1OC`, which IC50 (MV4-11) is on record?
**A.** 390 nM

**Q.** And the IC50 (MDA-MB-468)?
**A.** 390 nM

**Q.** What about the IC50 (MDA-MB-231 [1]) of the same compound?
**A.** 390 nM

**Q.** What about the IC50 (MG-63) of the same compound?
**A.** 390 nM

**Q.** What about the IC50 (NCI-H23) of the same compound?
**A.** 390 nM

**Q.** And the IC50 (A549 [2])?
**A.** 390 nM

**Q.** For `COc1ccc(/C=C/C(=O)/C=C/c2ccc(OC)c(OC)c2)cc1OC`, which IC50 (HCT-116 [7]) is on record?
**A.** 1500 nM

**Q.** Which IC50 (HCT-116 [7]) does the source give for `COc1cc(/C=C/C(=O)/C=C/c2cc(OC)c(OC)c(OC)c2)cc(OC)c1OC` here?
**A.** 250 nM

**Q.** Which results are given for `O=C1/C(=C/c2cccc(/N=C/c3ccc(O)cc3O)c2)CCC/C1=C\c1cccc(/N=C/c2ccc(O)cc2O)c1`?
**A.** IC50 (THP-1): < 5 µM; IC50 (K562): < 5 µM; IC50 (HepG2): < 5 µM; IC50 (HeLa [8]): < 5 µM

**Q.** For `O=C1/C(=C/c2ccc(Cl)cc2Cl)CNC/C1=C\c1ccc(Cl)cc1Cl`, which IC50 (MV4-11) is on record?
**A.** 390 nM

**Q.** What about the IC50 (MDA-MB-468) of the same compound?
**A.** 390 nM

**Q.** What about the IC50 (MDA-MB-231 [1]) of the same compound?
**A.** 390 nM

**Q.** What about the IC50 (MG-63) of the same compound?
**A.** 390 nM

**Q.** What about the IC50 (NCI-H23) of the same compound?
**A.** 390 nM

**Q.** What about the IC50 (A549 [2]) of the same compound?
**A.** 390 nM

**Q.** What does the source list for `O=C1/C(=C/c2cccc(/N=C/c3ccccc3O)c2)CCC/C1=C\c1cccc(/N=C/c2ccccc2O)c1`?
**A.** IC50 (THP-1): < 5 µM; IC50 (K562): < 5 µM; IC50 (HepG2): < 5 µM; IC50 (HeLa [8]): < 5 µM

**Q.** Which IC50 (8505C) does the source give for `COc1ccc(/C=C2\CC(C)C/C(=C\c3ccc(OC)c(OC)c3)C2=O)cc1OC` (centres undefined) here?
**A.** > 50 µM

**Q.** And the IC50 (DLD-1)?
**A.** > 50 µM

**Q.** What about the IC50 (ACHN) of the same compound?
**A.** > 50 µM

**Q.** What about the IC50 (A-431) of the same compound?
**A.** > 50 µM

**Q.** And the IC50 (Huh-7)?
**A.** > 50 µM

**Q.** And the IC50 (A549 [9])?
**A.** > 50 µM

**Q.** What about the IC50 [10] of the same compound?
**A.** > 50 µM

**Q.** And the IC50 (MCF7)?
**A.** > 50 µM

**Q.** And the IC50 (G-361)?
**A.** > 50 µM

**Q.** What about the IC50 (HuCCT-1) of the same compound?
**A.** > 50 µM

**Q.** And the IC50 (HCT-116 [11])?
**A.** > 50 µM

**Q.** And the IC50 [12]?
**A.** > 50 µM

**Q.** What about the IC50 (PC-3) of the same compound?
**A.** > 50 µM

**Q.** What about the IC50 [13] of the same compound?
**A.** > 50 µM

**Q.** And the IC50 (GCIY)?
**A.** > 50 µM

**Q.** Which results are given for `COc1cc(/C=C2\CN(C(C)=O)C/C(=C\c3cc(OC)c(OC)c(OC)c3)C2=O)cc(OC)c1OC`?
**A.** IC50 (MV4-11): 390 nM; IC50 (MDA-MB-468): 390 nM; IC50 (MDA-MB-231 [1]): 390 nM; IC50 (MG-63): 390 nM; IC50 (NCI-H23): 390 nM; IC50 (A549 [2]): 390 nM

**Q.** For `O=C1/C(=C/c2cccc(/N=C/c3cccc(O)c3O)c2)CCC/C1=C\c1cccc(/N=C/c2cccc(O)c2O)c1`, which IC50 (THP-1) is on record?
**A.** < 5 µM

**Q.** And the IC50 (K562)?
**A.** < 5 µM

**Q.** What about the IC50 (HepG2) of the same compound?
**A.** < 5 µM

**Q.** What about the IC50 (HeLa [8]) of the same compound?
**A.** < 5 µM

**Q.** For `O=C(/C=C/c1cccc(F)c1)/C=C/c1cccc(F)c1`, which EC50 (HeLa [14]) is on record?
**A.** 1030 nM

**Q.** What about the EC50 (Ca-Ski) of the same compound?
**A.** 1030 nM

**Q.** With `O=C1/C(=C/c2cccc(/N=C/c3ccc(O)c(O)c3O)c2)CCC/C1=C\c1cccc(/N=C/c2ccc(O)c(O)c2O)c1` as the compound, how does the IC50 (THP-1) read?
**A.** < 5 µM

**Q.** And the IC50 (K562)?
**A.** < 5 µM

**Q.** And the IC50 (HepG2)?
**A.** < 5 µM

**Q.** What about the IC50 (HeLa [8]) of the same compound?
**A.** < 5 µM

**Q.** With `COCOc1cc(/C=C/C(=O)CC(SCC(=O)OC)c2cc(OCOC)cc(OCOC)c2)cc(OCOC)c1` (centres undefined) as the compound, how does the IC50 (HUVEC) read?
**A.** 400 nM

**Q.** Which IC50 (HCT-116 [7]) does the source give for `COCOc1c(OC)cc(/C=C/C(=O)/C=C/c2cc(OC)c(OCOC)c(OC)c2)cc1OC` here?
**A.** 250 nM
